Reference: ChEMBL document CHEMBL1156091, “Stereoselective total synthesis of a potent natural antifungal compound (6S)-5,6,dihydro-6-[(2R)-2-hydroxy-6-phenyl hexyl]-2H-pyran-2-one” (2009)

Tested on: Cladosporium cucumerinum
Experiment: Antifungal activity against phytopathogenic Cladosporium cucumerinum by bioautographic TLC assay
Type: functional

Row | MIC | SMILES
1 | 1 µg | O=C1C=CC[C@@H](C[C@H](O)CCCCc2ccccc2)O1
2 | 1 µg | Clc1ccc(COC(Cn2ccnc2)c2ccc(Cl)cc2Cl)c(Cl)c1 (configuration not stated) [MICONAZOLE]
